According to PubChem BioAssay (NCI):
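Five concentrations, 48 hours, 96-well plates. Here, GI50 denotes the concentration required for 50% inhibition of growth. Definition used: TGI = concentration required for complete inhibition of growth.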

Legend:
Test in all cases: NCI tumour cell line growth inhibition, 48 h; in the data active = GI50 below about 0.43 µM; inactive = the rest
OVCAR-4 ovarian = test system: OVCAR-4 ovarian
UO-31 renal = test system: UO-31 renal
SK-MEL-2 melanoma = test system: SK-MEL-2 melanoma
SF-539 CNS = test system: SF-539 CNS
SR leukemia = test system: SR leukemia
OVCAR-5 ovarian = test system: OVCAR-5 ovarian
SF-295 CNS = test system: SF-295 CNS
SK-MEL-5 melanoma = test system: SK-MEL-5 melanoma
SNB-75 CNS = test system: SNB-75 CNS
IGROV1 ovarian = test system: IGROV1 ovarian
NCI-H460 lung = test system: NCI-H460 lung
A498 renal = test system: A498 renal
K-562 leukemia = test system: K-562 leukemia
NCI/ADR-RES ovarian = test system: NCI/ADR-RES ovarian
HL-60(TB) leukemia = test system: HL-60(TB) leukemia
NCI-H226 lung = test system: NCI-H226 lung
SW-620 colon = test system: SW-620 colon
T-47D breast = test system: T-47D breast
RPMI-8226 leukemia = test system: RPMI-8226 leukemia
RXF 393 renal = test system: RXF 393 renal
HOP-92 NSCLC = test system: HOP-92 NSCLC
MALME-3M melanoma = test system: MALME-3M melanoma
HOP-62 NSCLC = test system: HOP-62 NSCLC
ACHN renal = test system: ACHN renal
M14 melanoma = test system: M14 melanoma
COLO 205 colon = test system: COLO 205 colon
MDA-MB-435 = test system: MDA-MB-435
NCI-H522 lung = test system: NCI-H522 lung
MOLT-4 leukemia = test system: MOLT-4 leukemia
SK-OV-3 ovarian = test system: SK-OV-3 ovarian
LOX IMVI melanoma = test system: LOX IMVI melanoma
EKVX NSCLC = test system: EKVX NSCLC
MCF7 breast = test system: MCF7 breast
U251 CNS = test system: U251 CNS
NCI-H23 lung = test system: NCI-H23 lung
UACC-62 melanoma = test system: UACC-62 melanoma
SN12C renal = test system: SN12C renal
MDA-MB-231 breast = test system: MDA-MB-231 breast
KM12 colon = test system: KM12 colon
OVCAR-8 ovarian = test system: OVCAR-8 ovarian
HCT-116 colon = test system: HCT-116 colon
HT29 colon = test system: HT29 colon
SF-268 CNS = test system: SF-268 CNS
CAKI-1 renal = test system: CAKI-1 renal
SNB-19 CNS = test system: SNB-19 CNS
HS 578T breast = test system: HS 578T breast
UACC-257 melanoma = test system: UACC-257 melanoma
786-0 renal = test system: 786-0 renal
DU-145 prostate = test system: DU-145 prostate
BT-549 breast = test system: BT-549 breast
OVCAR-3 ovarian = test system: OVCAR-3 ovarian
PC-3 prostate = test system: PC-3 prostate
TK-10 renal = test system: TK-10 renal
HCT-15 colon = test system: HCT-15 colon
HCC-2998 colon = test system: HCC-2998 colon
CCRF-CEM leukemia = test system: CCRF-CEM leukemia
SK-MEL-28 melanoma = test system: SK-MEL-28 melanoma
A549 NSCLC = test system: A549 NSCLC

CC(=O)Nc1cccc(C#Cc2cncnc2Nc2ccc(OCc3cccc(F)c3)c(Cl)c2)n1
18.2 µM: TGI (HOP-92 NSCLC)
> 23.4 µM: TGI (U251 CNS)
active: GI50 (TK-10 renal) 0.412 µM
inactive: GI50 (OVCAR-4 ovarian) > 22.7 µM | GI50 (UO-31 renal) 22.5 µM | GI50 (SK-MEL-2 melanoma) 10.4 µM | GI50 (SF-539 CNS) > 23.3 µM | GI50 (SR leukemia) > 25 µM | GI50 (OVCAR-5 ovarian) > 23.4 µM | GI50 (SF-295 CNS) 13.7 µM | GI50 (SK-MEL-5 melanoma) > 18.8 µM | GI50 (SNB-75 CNS) 11.9 µM | GI50 (IGROV1 ovarian) 4.2 µM | GI50 (NCI-H460 lung) 11.9 µM | GI50 (A498 renal) 1.22 µM | GI50 (K-562 leukemia) > 25 µM | GI50 (NCI/ADR-RES ovarian) 20.7 µM | GI50 (HL-60(TB) leukemia) > 25 µM | GI50 (NCI-H226 lung) > 17.8 µM | GI50 (SW-620 colon) 23.1 µM | GI50 (T-47D breast) 2.57 µM | GI50 (RPMI-8226 leukemia) > 25 µM | GI50 (RXF 393 renal) 20.8 µM | GI50 (HOP-92 NSCLC) 3.61 µM | GI50 (MALME-3M melanoma) 9.55 µM | GI50 (HOP-62 NSCLC) 10.3 µM | GI50 (ACHN renal) 2.87 µM | GI50 (M14 melanoma) 16.1 µM | GI50 (COLO 205 colon) > 22.2 µM | GI50 (MDA-MB-435) > 20.4 µM | GI50 (NCI-H522 lung) 8.25 µM | GI50 (MOLT-4 leukemia) > 25 µM | GI50 (SK-OV-3 ovarian) 1.06 µM | GI50 (LOX IMVI melanoma) > 18.5 µM | GI50 (EKVX NSCLC) 0.475 µM | GI50 (MCF7 breast) > 25 µM | GI50 (U251 CNS) 7.14 µM | GI50 (NCI-H23 lung) > 25 µM | GI50 (UACC-62 melanoma) 24.4 µM | GI50 (SN12C renal) > 25 µM | GI50 (MDA-MB-231 breast) 6.04 µM | GI50 (KM12 colon) > 25 µM | GI50 (OVCAR-8 ovarian) 15.4 µM | GI50 (HCT-116 colon) 11.6 µM | GI50 (HT29 colon) 17.6 µM | GI50 (SF-268 CNS) > 18.8 µM | GI50 (CAKI-1 renal) 2.28 µM | GI50 (SNB-19 CNS) > 21.7 µM | GI50 (HS 578T breast) 24.9 µM | GI50 (UACC-257 melanoma) > 21.5 µM | GI50 (786-0 renal) > 22.5 µM | GI50 (DU-145 prostate) 8.62 µM | GI50 (BT-549 breast) > 25 µM | GI50 (OVCAR-3 ovarian) > 21.6 µM | GI50 (PC-3 prostate) 9.4 µM | GI50 (HCT-15 colon) > 25 µM | GI50 (HCC-2998 colon) > 25 µM | GI50 (CCRF-CEM leukemia) > 25 µM | GI50 (SK-MEL-28 melanoma) 14.8 µM | GI50 (A549 NSCLC) 6.81 µM
> 25 µM: TGI (OVCAR-4 ovarian) | TGI (UO-31 renal) | TGI (SK-MEL-2 melanoma) | TGI (SF-539 CNS) | TGI (SR leukemia) | TGI (OVCAR-5 ovarian) | TGI (SF-295 CNS) | TGI (SK-MEL-5 melanoma) | TGI (SNB-75 CNS) | TGI (IGROV1 ovarian) | TGI (NCI-H460 lung) | TGI (A498 renal) | TGI (K-562 leukemia) | TGI (NCI/ADR-RES ovarian) | TGI (HL-60(TB) leukemia) | TGI (NCI-H226 lung) | TGI (SW-620 colon) | TGI (T-47D breast) | TGI (RPMI-8226 leukemia) | TGI (RXF 393 renal) | TGI (MALME-3M melanoma) | TGI (HOP-62 NSCLC) | TGI (ACHN renal) | TGI (M14 melanoma) | TGI (COLO 205 colon) | TGI (MDA-MB-435) | TGI (NCI-H522 lung) | TGI (MOLT-4 leukemia) | TGI (SK-OV-3 ovarian) | TGI (LOX IMVI melanoma) | TGI (EKVX NSCLC) | TGI (MCF7 breast) | TGI (NCI-H23 lung) | TGI (UACC-62 melanoma) | TGI (SN12C renal) | TGI (MDA-MB-231 breast) | TGI (KM12 colon) | TGI (OVCAR-8 ovarian) | TGI (HCT-116 colon) | TGI (HT29 colon) | TGI (SF-268 CNS) | TGI (CAKI-1 renal) | TGI (SNB-19 CNS) | TGI (HS 578T breast) | TGI (UACC-257 melanoma) | TGI (786-0 renal) | TGI (DU-145 prostate) | TGI (BT-549 breast) | TGI (OVCAR-3 ovarian) | TGI (PC-3 prostate) | TGI (HCT-15 colon) | TGI (HCC-2998 colon) | TGI (CCRF-CEM leukemia) | TGI (SK-MEL-28 melanoma) | TGI (A549 NSCLC)
> 17.6 µM: TGI (TK-10 renal)
